Experimental data: ChEMBL document CHEMBL1153178, “Design and synthesis of a hybrid potentiator-corrector agonist of the cystic fibrosis mutant protein DeltaF508-CFTR” (Bioorg Med Chem Lett, 2010)
The source made the active and inactive calls. The calls are words filed in the database; no cut-off is given here.

Test system: Cystic fibrosis transmembrane conductance regulator (Homo sapiens), P13569 [F508del]
Assay: Agonist activity at human CFTR deltaF508 mutant expressed in rat FRT cells assessed as forskolin-stimulated […] by patch-clamp method
Format: functional, cell-based

Sequence of Cystic fibrosis transmembrane conductance regulator (Homo sapiens), P13569 [F508del] (P13569 as listed by the source): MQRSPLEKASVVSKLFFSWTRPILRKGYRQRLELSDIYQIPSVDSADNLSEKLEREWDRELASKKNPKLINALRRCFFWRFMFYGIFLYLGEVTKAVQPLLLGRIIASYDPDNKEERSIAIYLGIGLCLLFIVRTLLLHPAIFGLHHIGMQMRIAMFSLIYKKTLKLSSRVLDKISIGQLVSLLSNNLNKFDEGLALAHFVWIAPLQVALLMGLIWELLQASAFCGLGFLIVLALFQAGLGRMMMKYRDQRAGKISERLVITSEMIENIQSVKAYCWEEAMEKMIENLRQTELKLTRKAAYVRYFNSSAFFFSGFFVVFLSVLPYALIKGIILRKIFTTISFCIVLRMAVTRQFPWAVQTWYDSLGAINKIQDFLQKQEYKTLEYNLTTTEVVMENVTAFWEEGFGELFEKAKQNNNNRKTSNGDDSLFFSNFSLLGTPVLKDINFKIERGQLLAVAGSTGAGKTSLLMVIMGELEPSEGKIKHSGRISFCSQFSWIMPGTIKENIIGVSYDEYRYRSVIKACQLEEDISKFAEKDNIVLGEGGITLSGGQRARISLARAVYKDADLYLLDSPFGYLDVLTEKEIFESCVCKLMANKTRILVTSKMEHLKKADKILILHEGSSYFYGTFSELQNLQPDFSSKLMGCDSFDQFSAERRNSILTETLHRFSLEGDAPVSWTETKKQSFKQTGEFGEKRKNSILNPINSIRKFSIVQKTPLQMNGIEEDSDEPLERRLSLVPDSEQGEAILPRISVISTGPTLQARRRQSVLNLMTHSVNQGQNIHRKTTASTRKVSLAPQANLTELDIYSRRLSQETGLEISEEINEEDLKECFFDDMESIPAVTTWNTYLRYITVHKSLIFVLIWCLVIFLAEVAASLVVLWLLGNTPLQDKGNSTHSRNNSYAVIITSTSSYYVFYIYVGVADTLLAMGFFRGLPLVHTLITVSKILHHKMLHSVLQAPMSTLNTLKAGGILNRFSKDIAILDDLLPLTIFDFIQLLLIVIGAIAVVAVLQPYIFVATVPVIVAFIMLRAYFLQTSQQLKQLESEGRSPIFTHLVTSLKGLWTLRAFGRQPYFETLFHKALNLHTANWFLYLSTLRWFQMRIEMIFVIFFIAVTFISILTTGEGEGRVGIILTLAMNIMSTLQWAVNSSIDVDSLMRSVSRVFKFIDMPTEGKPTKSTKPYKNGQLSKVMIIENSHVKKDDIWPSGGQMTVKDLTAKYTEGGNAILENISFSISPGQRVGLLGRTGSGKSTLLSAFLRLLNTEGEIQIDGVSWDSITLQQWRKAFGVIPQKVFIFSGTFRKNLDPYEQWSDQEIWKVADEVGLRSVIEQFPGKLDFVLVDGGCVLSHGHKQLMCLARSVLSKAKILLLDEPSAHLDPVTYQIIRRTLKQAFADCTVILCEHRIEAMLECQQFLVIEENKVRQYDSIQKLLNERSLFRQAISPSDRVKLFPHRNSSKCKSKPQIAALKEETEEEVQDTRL

Structure (SMILES) | Activity
Cc1nc(NC(=O)c2ccccc2)sc1-c1csc(Nc2cc(Cl)ccc2OCCOCCOCC(=O)OCc2ccc(NC(=O)[C@H](c3ccccc3)N(C)C(=O)Cc3c[nH]c4ccccc34)cc2)n1 | inactive
Cc1nc(NC(=O)c2ccccc2)sc1-c1csc(Nc2cc(Cl)ccc2OCCOCCOCC(=O)O)n1 | Active
CN(C(=O)Cc1c[nH]c2ccccc12)[C@H](C(=O)Nc1ccc(CO)cc1)c1ccccc1 | Active
